Key:
Type in all cases: cell-based
[1] = test system: human hematopoietic CD34+ stem cells; experiment: Production of dendritic cells from human hematopoietic CD34+ stem cells, cell markers (Example 2); settings: TNF-α 2.5 ng/ml or RU 41740 6.25 ng/ml from D0 to D5
Experimental: Purification: After Ficoll, the CD34+ represented 4.2% of the mononucleated cells (MNC).
After purification by positive selection with the MAC System procedure (Miltenyi Biotec) with beads coated with an anti-CD34 antibody, 90% of the cells are CD34+.
Culture Medium: RPMI containing 10% of FCS, 2% of penicillin/streptomycin, 1% of glutamine and 1% of sodium bicarbonate.
Culture in 2 ml wells with 5×10^5 cells per well. from D0 to D5: […] at 25 ng/ml, GM-CSF at 100 ng/ml and either TNF-α at 2.5 ng/ml […]
from D5 to D14: GM-CSF at 100 ng/ml
Duplication of the Cultures: -the cells are homogenized in the well, then 1 ml sample is taken and deposited in a fresh well. 1 ml of culture medium is then added to the fresh well and the old one, as well as GM-CSF as a function of the medium added.
A fluorescence-labelled anti-KLH primary antibody was used as control in order to be able to subtract the non-specific fluorescence of the signals obtained.

Langerhans cells = experiment: Differentiation of Langerhans cells from cord blood CD34+ cells (Example 4); settings: D12; GM-CSF with TNF-α 2.5 ng/ml or RU 41740 10 μg/ml for 12 days
From the text: The stem cells are obtained after a passage of cord blood through a Ficoll gradient. The mononucleated CD34+ cells are purified by positive selection with an anti-CD34 monoclonal antibody (Immu 133.3, Immunotech Marseille, France). After purification, more than 90% of the cells are CD34+.
At the end of the culture period at D12, the cells are labelled with the anti-CD1a, CD14, Lag, E-cadherin, DR and DQ antibodies so as to identify the Langerhans cells which are Lag+, CD1a+, CD14−, DR+ and DQ+.

[2] = test system: dendritic cells derived from human monocytes; experiment: Effect of LCOS 1013 on maturation of dendritic cells derived from human monocytes, phenotype by flow cytometry (Examples 11, 12)
From the text: The purified monocytes (more than 90%) were placed in culture in RPMI medium containing 10% AB human serum in the presence of growth factors GM-CSF (200 U/ml) and IL-4 (500 U/ml) for 6 days in order to induce the differentiation of the monocytes into immature dendritic cells.
The phenotype of the cells thus generated (after 8 days of culture) was examined by flow cytometry. The expression of the marker specific for maturation of the dendritic cells (CD83), of the co-stimulatory molecules CD80, CD86, CD40, of the adhesion molecule CD54, of the class II HLA-DR molecule of the major histocompatibility complex was analyzed. The expression of the CD1a molecule, specific marker of the Langerhans cells, immature dendritic cells, was also tested.

[3] = Donor 1, TNF-α 200 U/ml or LCOS 1013 25 μg/ml for 48 hours
[4] = Donor 2, TNF-α 200 U/ml or LCOS 1013 25 μg/ml for 48 hours
[5] = Donor 3, TNF-α 200 U/ml or LCOS 1013 25 μg/ml for 48 hours
[6] = Example 12, single donor, TNF-α 200 U/ml

TNF-α
CD1a, percentage of cells expressing the marker ([1]; D8): 8.7%
CD14, percentage of cells expressing the marker ([1]; D8): 40%
CD34, percentage of cells expressing the marker ([1]; D8): 0.7%
CD40, percentage of cells expressing the marker ([1]; D8): 44%
CD45, percentage of cells expressing the marker ([1]; D8): 96%
CD54, percentage of cells expressing the marker ([1]; D8): 33%
CD83, percentage of cells expressing the marker ([1]; D8): 0.5%
CD86, percentage of cells expressing the marker ([1]; D8): 13%
HLA-DR, percentage of cells expressing the marker ([1]; D8): 88%
CD1a, percentage of cells expressing the marker ([1]; D12): 8.4%
CD14, percentage of cells expressing the marker ([1]; D12): 63.2%
CD40, percentage of cells expressing the marker ([1]; D12): 64.3%
CD54, percentage of cells expressing the marker ([1]; D12): 61.8%
CD80, percentage of cells expressing the marker ([1]; D12): 5.3%
CD83, percentage of cells expressing the marker ([1]; D12): 1.3%
CD86, percentage of cells expressing the marker ([1]; D12): 7.4%
HLA-DQ, percentage of cells expressing the marker ([1]; D12): 54.1%
HLA-DR, percentage of cells expressing the marker ([1]; D12): 80.3%
CD1a, percentage of cells expressing the marker ([1]; D14): 10.3%
CD14, percentage of cells expressing the marker ([1]; D14): 54.1%
CD83, percentage of cells expressing the marker ([1]; D14): 0.8%
CD86, percentage of cells expressing the marker ([1]; D14): 2.2%
HLA-DR, percentage of cells expressing the marker ([1]; D14): 69.9%
CD1a+ DR+ cells (Langerhans cells): 8%
Lag+ DR+ cells (Langerhans cells): 5.2%
CD1a, MFI [2, 3]: 28
CD1a, percentage of expression [2, 3]: 13.2%
CD40, MFI [2, 3]: (1084)
CD40, percentage of expression [2, 3]: 99.4%
CD54, MFI [2, 3]: (195)
CD54, percentage of expression [2, 3]: 98.4%
CD80, MFI [2, 3]: (85)
CD80, percentage of expression [2, 3]: 69.7%
CD83, MFI [2, 3]: (132)
CD83, percentage of expression [2, 3]: 91%
CD86, MFI [2, 3]: (209)
CD86, percentage of expression [2, 3]: 99.5%
HLA-DR, MFI [2, 3]: (803)
HLA-DR, percentage of expression [2, 3]: 99.5%
CD1a, MFI [2, 4]: 215
CD1a, percentage of expression [2, 4]: 20.6%
CD40, MFI [2, 4]: (1104)
CD40, percentage of expression [2, 4]: 99.2%
CD54, MFI [2, 4]: (355)
CD54, percentage of expression [2, 4]: 97.8%
CD80, MFI [2, 4]: (89)
CD80, percentage of expression [2, 4]: 55.1%
CD83, MFI [2, 4]: (221)
CD83, percentage of expression [2, 4]: 88%
CD86, MFI [2, 4]: (299)
CD86, percentage of expression [2, 4]: 99.1%
HLA-DR, MFI [2, 4]: (1108)
HLA-DR, percentage of expression [2, 4]: 98.6%
CD1a, expression [2, 5]: Neg.
CD40, MFI [2, 5]: (918)
CD40, percentage of expression [2, 5]: 98.7%
CD54, MFI [2, 5]: (154)
CD54, percentage of expression [2, 5]: 95.9%
CD80, MFI [2, 5]: (65)
CD80, percentage of expression [2, 5]: 48.7%
CD83, MFI [2, 5]: (108)
CD83, percentage of expression [2, 5]: 91.8%
CD86, MFI [2, 5]: (209)
CD86, percentage of expression [2, 5]: 98.5%
HLA-DR, MFI [2, 5]: (768)
HLA-DR, percentage of expression [2, 5]: 98.9%
CD40, percentage of expression [2, 6]: 83.44%
CD40, second line of cell (MFI) [2, 6]: 289.54
CD54, percentage of expression [2, 6]: 87.12%
CD54, second line of cell (MFI) [2, 6]: 137.49
CD80, percentage of expression [2, 6]: 0.49%
CD80, second line of cell (MFI) [2, 6]: 95.04
CD83, percentage of expression [2, 6]: 70.02%
CD83, second line of cell (MFI) [2, 6]: 65.55
CD86, percentage of expression [2, 6]: 94.44%
CD86, second line of cell (MFI) [2, 6]: 180.81
HLA-DR, percentage of expression [2, 6]: 92.12%
HLA-DR, second line of cell (MFI) [2, 6]: 877.54
